In one assay the target is KRAS G12V (Homo sapiens (Human), UniProt P01116, G12V). Description: KRAS G12V degradation in SW620 cells (Western blot, DC50). Format: cell-based. As to conditions: 24 hours. As for the experimental part: SW620 (KRAS G12V homozygous), AsPC1 (KRAS G12D homozygous), MIA PaCa2 (KRAS G12C homozygous), A549 (KRAS G12S homozygous) and MCF7 (KRAS WT) cells were obtained from American Type Culture Collection (ATCC). […] The following day, the test compound was administered to the cells by using 1000× compound stock solution prepared in DMSO at various concentrations. After administration of the compound, the cells were then incubated at 37° C. for 24 hours. Upon completion, the cells were washed with PBS and protein was collected in Laemmli sample buffer (1×; VWR International). Proteins in cell lysate were separated by SDS-PAGE and transferred to Odyssey nitrocellulose membranes (Licor) with iblot® dry blotting transfer system (ThermoFisher). Nonspecific binding was blocked by incubating membranes with Intercept Blocking Buffer (Licor) for 1 hour at room temperature with gentle shaking. […] After washing 3 times with TBS-T, the membranes were incubated with IRDye® 800CW goat anti-rabbit IgG (1:20,000, Licor) and IRDye® 680RD goat anti-mouse IgG (1:20,000, Licor) for 1 hour. After TBS-T washes, membranes were rinsed in TBS and Western blot images were acquired by Odyssey CLx (LI-COR Biosciences).
Sequence of KRAS G12V (P01116-2 other isoform, or with tags, fused parts or gaps G12V): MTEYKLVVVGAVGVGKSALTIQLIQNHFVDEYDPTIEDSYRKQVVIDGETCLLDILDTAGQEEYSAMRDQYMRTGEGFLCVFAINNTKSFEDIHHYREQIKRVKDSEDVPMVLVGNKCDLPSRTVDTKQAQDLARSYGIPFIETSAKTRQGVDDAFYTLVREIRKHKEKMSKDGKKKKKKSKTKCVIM
The signal intensity of target proteins was calculated using ImageStudio software. KRAS fluorescent intensity (FLU) from DMSO (vehicle) treatment was set as 100%. Relative KRAS expression level was determined by the following formula: […]
The percentage of KRAS expression was calculated using Microsoft Excel. The half-maximal degradation concentration (DCso) values were generated by GraphPad Prism (Version 9) using the dose-response equation of variable slope (four parameters).

For a further assay, the system named is SW620 cells. Description: 3D cell growth inhibition of SW620 cells carrying endogenous KRAS G12V mutation (CellTiter-Glo 3D, GI50). Format: cell-based. As to conditions: Homo sapiens, SW-620, 144 h; SW620 cells, 6 days; read-out: SW620 3D cell growth GI50. As to the method:
The following day, the test compound was administered to the cells by using 1000× compound stock solution prepared in DMSO at various concentrations. 1000× compound stock solution was first diluted in culturing medium to 10×, then 10 μL compound medium was added to each well in the cell plates. After administration of the compound, the cells were then incubated at 37° C. for 6 days. Upon completion, the plates were equilibrated at room temperature for approximately 10 minutes. 100 μL of CellTiter-Glo® 3D Reagent (Promega) was added to each well. The plates were then incubated at room temperature for 30 minutes and luminescence was recorded by EnSpire plate reader (PerkinElmer).

The target of the next assay is KRAS-G12V/RAF1 (Homo sapiens (Human), UniProt P01116, G12V). Description: KRAS/RAF1 binding inhibition assay (AlphaScreen). As to the method: Binding affinity against GTP-bound KRAS of the compounds disclosed herein was measured by monitoring the interaction of guanosine 5′-[β,γ-imido]triphosphate-bound (GppNHp-bound) KRAS with the RBD domain of RAF1 in the presence of the test compound. […] The test compounds in 2% DMSO (final concentration) at various concentrations were then added to the reaction mixture and incubated for 60 minutes at 4° C.
Sequence of KRAS-G12V/RAF1 (P01116-2 other isoform, or with tags, fused parts or gaps G12V): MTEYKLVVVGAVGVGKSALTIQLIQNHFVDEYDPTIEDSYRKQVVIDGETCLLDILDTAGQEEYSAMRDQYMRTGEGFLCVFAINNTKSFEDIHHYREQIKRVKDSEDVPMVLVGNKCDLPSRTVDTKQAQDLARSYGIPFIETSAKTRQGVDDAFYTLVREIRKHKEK
Raw ALphaScreen data were converted to a percentage of inhibition (relative to DMSO) using the following equations: • a) For a given test compound concentration X: […]
The IC50 values were determined by nonlinear regression of plots of [inhibitor] vs. percentage of inhibition with variable slope, analyzed using GraphPad Prism (Version 9).

The results in this text go back to patent US20250092039A1, “GLUTARIMIDE-CONTAINING PAN-KRAS-MUTANT DEGRADER COMPOUNDS AND USES THEREOF” (Tiger Biotherapeutics Inc., priority 2022, published 2025).

Bounds are passed on as bounds.

In the case of `Cc1cc(N)nc(-c2c(Cl)c3c4c(nc(OCC5(CN6CCC7(CC6)CC(CN6CCN(c8ccc9c(c8)CN([C@H]8CCC(=O)NC8=O)C9=O)CC6)C7)CC5)nc4c2F)N(C(C)c2cccnc2N)CCO3)c1C(F)(F)F` (stereo partly drawn) [Compound 5, (3S)-3-(5-(4-((7-((1-(((9-(6-amino-4-methyl-3-(trifluoromethyl)pyridin-2-yl)-4-(1-(2-aminopyridin-3-yl)ethyl)-8-chloro-10-fluoro-5,6-dihydro-4H-[1,4]oxazepino[5,6,7-de]quinazolin-2-yl)oxy)methyl)cyclopropyl)methyl)-7-azaspiro[3.5]nonan-2-yl)methyl)piperazin-1-yl)-1-oxoisoindolin-2-yl)piperidine-2,6-dione], the half-maximal degradation concentration (DC50) on KRAS G12V was greater than 100 nM. The GI50 in the assay with SW620 cells was greater than 100 nM.
As to `CCc1c(F)ccc2cc(O)cc(-c3ncc4c(N5CCC[C@@](C)(O)C5)nc(OCC5(CN6CCC(N7CC(CN8CCN(c9ccc(C%10CCC(=O)NC%10=O)cc9)CC8)C7)CC6)CC5)nc4c3F)c12` (stereo partly drawn) [Compound 21, 3-(4-(4-((1-(1-((1-(((7-(8-ethyl-7-fluoro-3-hydroxynaphthalen-1-yl)-8-fluoro-4-((R)-3-hydroxy-3-methylpiperidin-1-yl)pyrido[4,3-d]pyrimidin-2-yl)oxy)methyl)cyclopropyl)methyl)piperidin-4-yl)azetidin-3-yl)methyl)piperazin-1-yl)phenyl)piperidine-2,6-dione], at KRAS G12V, the half-maximal degradation concentration (DC50) is greater than 100 nM. Moreover, in the assay on SW620 cells, the GI50 is greater than 100 nM.
Take `CCc1c(F)ccc2cc(O)cc(-c3ncc4c(N5CCC[C@@](C)(O)C5)nc(OCC5(CN6CCC7(CC6)CC(CN6Cc8ccc(C9CCC(=O)NC9=O)cc8C6)C7)CC5)nc4c3F)c12` (stereo partly drawn) [Compound 34, 3-(2-((7-((1-(((7-(8-ethyl-7-fluoro-3-hydroxynaphthalen-1-yl)-8-fluoro-4-((R)-3-hydroxy-3-methylpiperidin-1-yl)pyrido[4,3-d]pyrimidin-2-yl)oxy)methyl)cyclopropyl)methyl)-7-azaspiro[3.5]nonan-2-yl)methyl)isoindolin-5-yl)piperidine-2,6-dione]: the DC50 at KRAS G12V is greater than 100 nM. Further, the GI50 in the assay on SW620 cells was greater than 100 nM.
At KRAS G12V, `CCc1c(F)ccc2cc(O)cc(-c3ncc4c(N5CCCOC6CC65)nc(OCC5(CN6CCC(CN7CCN(c8ccc9c(c8)CN([C@H]8CCC(=O)NC8=O)C9=O)CC7)CC6)CC5)nc4c3F)c12` (stereo partly drawn) [Compound 160, (3S)-3-(5-(4-((1-((1-(((4-(2-oxa-6-azabicyclo[5.1.0]octan-6-yl)-7-(8-ethyl-7-fluoro-3-hydroxynaphthalen-1-yl)-8-fluoropyrido[4,3-d]pyrimidin-2-yl)oxy)methyl)cyclopropyl)methyl)piperidin-4-yl)methyl)piperazin-1-yl)-1-oxoisoindolin-2-yl)piperidine-2,6-dione] had a DC50 greater than 100 nM. Moreover, the IC50 on KRAS-G12V/RAF1 is 20 to 200 nM.
Taken in the same sequence, the figures for `CCc1c(F)ccc2cc(O)cc(-c3ncc4c(N5CCC[C@@](C)(O)C5)nc(OCC5(CN6CCC7(CC6)CC(F)(C6CCN(c8ccc9c(c8)CN(C8CCC(=O)NC8=O)C9=O)CC6)C7)CC5)nc4c3F)c12` (stereo partly drawn) [Compound 185, 3-(5-(4-(7-((1-(((7-(8-ethyl-7-fluoro-3-hydroxynaphthalen-1-yl)-8-fluoro-4-((R)-3-hydroxy-3-methylpiperidin-1-yl)pyrido[4,3-d]pyrimidin-2-yl)oxy)methyl)cyclopropyl)methyl)-2-fluoro-7-azaspiro[3.5]nonan-2-yl)piperidin-1-yl)-1-oxoisoindolin-2-yl)piperidine-2,6-dione] were greater than 100 nM and 20 to 200 nM.

One may read the DC50 as the concentration at which degradation of the target reaches its halfway point. The GI50 is the concentration that inhibits growth by half. In general, IC50 refers to the concentration that gives 50% inhibition. A lower IC50 goes with inhibition by little substance.
